Measurements from article PMC9406419, “OATD-02 Validates the Benefits of Pharmacological Inhibition of Arginase 1 and 2 in Cancer” (Cancers, 2022).

Assays:
[1] = system: CT26 tumours; assay: Syngeneic CT26 colorectal carcinoma model, monotherapy, with plasma/tumour bioanalytics; assay type: in vivo, mouse; conditions: for final TGI (tumour growth inhibition): CT26 in BALB/c mice, 100 mg/kg, PO, BID from day 1 post-inoculation
Method: CT26 and K562 in vivo experiments were conducted at Molecure SA. All experimental procedures were approved by the 1st Local Ethics Committee in Warsaw (Poland). For the syngeneic CT26 model, 7–8-week old BALB/c females (n = 9–18 per group, BALB/cAnNCrl, Charles River Laboratories) were injected subcutaneously in the right flank with 5 × 10^5 CT26 cells. […] Anti-PD-L1 antibody (InVivoPlus anti-mouse PD-L1, clone 10F.9G2, BioXCell, lot 615416D1) was injected intraperitoneally at 2.5 mg/kg on days: 8, 10, 12, 14 and 16 post tumour cells inoculation. Control groups received vehicle (saline) or isotype antibody (InVivoPlus rat IgG2b, anti-KLH, BioXCell, lot 629816D1). For the xenograft K562 model, 7–8 week-old athymic nude mice (n = 8–11 per group, Crl:NU(NCr)-Foxn1^nu, Charles River Laboratories) or NK cell-deficient Fox Chase SCID Beige mice (n = 10–12 per group, CB17.Cg-Prkdc^scidLyst^bg-J/Crl, Charles River Laboratories) were injected subcutaneously in the right flank with 1 × 10^7 K562 cells. […] Tumour volume measured by a digital calliper (width × length × depth × π/6) was recorded three times per week. Animals were euthanized when tumours were necrotized or volume exceeded 2000 mm^3. Renca in vivo efficacy study was performed at Crown Biosciences Inc. (Taicang, China). All experimental procedures on animals were approved by the Institutional Animal Care and Use Committee (IACUC) and conducted in accordance with the regulations of the Association for Assessment and Accreditation of Laboratory Animal Care (AAALAC). For the syngeneic Renca model, 6–7 week-old BALB/c females (n = 12 per group, Shanghai Lingchang Biotechnology, Shanghai, China) were injected subcutaneously in the right flank with 1 × 10^6 Renca cells. Tumour volumes (length × width^2 × 0.5) were measured twice per week. OATD-02 was dosed twice per day at 75 mg/kg by oral gavage. A dosing holiday was given to individuals with bodyweight loss exceeding 15% of the initial body weight and the treatment was resumed when the bodyweight loss recovered to less than 10%. Due to the cachexic nature of the Renca model, all animals were supplemented with DietGel to help maintain their body weight.
The concentrations of OATD-02, the reference ARGi or L-arginine were determined in plasma samples or tumour homogenates using liquid chromatography coupled with tandem mass spectrometry (LC-MS/MS). Sample preparation was based on protein precipitation using acetonitrile. The resulting supernatants were analysed using hydrophilic interaction liquid chromatography (HILIC) with subsequent MS detection based on optimised MRM transitions. Matrix-matched calibration and quality control samples were prepared for quantification of OATD-02 and the reference ARGi. Due to the endogenous character of L-arginine, a surrogate matrix was used for its detection.
All statistical analyses were performed using GraphPad Prism (ver. 9, GraphPad Software, Inc., San Diego, CA, USA). Data sets with normal distribution were described as means with SEM (standard error of the mean). Otherwise, the median value was shown and the U Mann–Whitney or the Kruskal–Wallis tests were applied for intergroup comparisons. Differences at p-value less than 0.05 were considered statistically significant. TGI (tumour growth inhibition) index was calculated by the formula: (1 − A/B) × 100%, where A is the tumour volume in the treated group and B is the volume in the control group. […]

[2] = system: K562 tumours; assay: K562 xenograft model in athymic nude mice; assay type: in vivo, mouse
Method: (§1) CT26 and K562 in vivo experiments were conducted at Molecure SA. All experimental procedures were approved by the 1st Local Ethics Committee in Warsaw (Poland). For the syngeneic CT26 model, 7–8-week old BALB/c females (n = 9–18 per group, BALB/cAnNCrl, Charles River Laboratories) were injected subcutaneously in the right flank with 5 × 10^5 CT26 cells. […] Anti-PD-L1 antibody (InVivoPlus anti-mouse PD-L1, clone 10F.9G2, BioXCell, lot 615416D1) was injected intraperitoneally at 2.5 mg/kg on days: 8, 10, 12, 14 and 16 post tumour cells inoculation. Control groups received vehicle (saline) or isotype antibody (InVivoPlus rat IgG2b, anti-KLH, BioXCell, lot 629816D1). For the xenograft K562 model, 7–8 week-old athymic nude mice (n = 8–11 per group, Crl:NU(NCr)-Foxn1^nu, Charles River Laboratories) or NK cell-deficient Fox Chase SCID Beige mice (n = 10–12 per group, CB17.Cg-Prkdc^scidLyst^bg-J/Crl, Charles River Laboratories) were injected subcutaneously in the right flank with 1 × 10^7 K562 cells. […] Tumour volume measured by a digital calliper (width × length × depth × π/6) was recorded three times per week. Animals were euthanized when tumours were necrotized or volume exceeded 2000 mm^3. Renca in vivo efficacy study was performed at Crown Biosciences Inc. (Taicang, China). […] Tumour volumes (length × width^2 × 0.5) were measured twice per week. […]

[3] = system: K562 tumours; assay: K562 xenograft model in T and NK cell-deficient Fox Chase SCID Beige mice; assay type: in vivo, mouse; conditions: 50 mg/kg PO BID from day 7, day 19
Method: as §1

[4] = system: K562 cells; assay: Long-term culture of OATD-02-treated K562 cells (viable cell count, propidium iodide); assay type: cell-based, human; conditions: different concentrations, 14 days, medium not replaced
Method: CT26.WT (CRL-2638, CT26, mouse colon carcinoma) and K562 (CCL-243, human CML) cell lines were purchased from the ATCC®. Adherent CT26 and non-adherent K562 cells were maintained in the RPMI-1640 medium (Gibco, Life Technologies, Carlsbad, CA, USA) supplemented with 10% foetal bovine serum (FBS, #10270106, ThermoFisher/Gibco™) and 100 U/mL penicillin G and 100 µg/mL streptomycin (Antibiotic-Antimycotic, #15240062, Gibco®) at 37 °C in a humidified 5% CO2 atmosphere. Full-grown monolayers of CT26 cells were trypsinized for 15 min (0.25% Gibco® Trypsin-EDTA), harvested, and passaged several times for expansion. Both cell lines were confirmed at the last used passage to be mycoplasma-free (Mycoalert Detection Kit, Lonza, Basel, Switzerland). The Renca (murine renal adenocarcinoma) cell line was maintained for the in vivo study conducted at Crown Biosciences (Beijing, China). A monolayer culture was grown in DMEM medium supplemented with 10% FBS at 37 °C and 5% CO2. The cells were harvested in exponential growth phase and used for inoculation. […] To assess the antiproliferative effects of OATD-02, the culture medium has not been replaced during this period and the cell density/viability (propidium iodide staining) was determined daily. […]

[5] = Tolerability in animal models; assay type: in vivo

oral bioavailability (plasma concentrations, compared between the two inhibitors) ([1]; CT26-bearing mice, 100 mg/kg PO BID, Figure 2B)	SMILES	final TGI (tumour growth inhibition) [1]	final TGI, K562 tumor volumes, athymic nude mice ([2]; 100 mg/kg PO BID (Figure 5 legend) from day 6, day 19 post-inoculation)	fold change of endogenous plasma L-arginine ([1]; CT26-bearing mice, 100 mg/kg PO BID, 6 h after the last dosing)	fold change of L-arginine in tumour homogenates ([1]; CT26 tumours, 100 mg/kg PO BID, within the first 6 h post-dosing)	final TGI, K562 tumor volumes, athymic nude mice ([2]; 50 mg/kg PO BID from day 6, day 19 post-inoculation)	final TGI, K562 tumor volumes, Fox Chase SCID Beige mice [3]	survival of K562 cells in long-term culture [4]	safety and tolerability [5]
higher oral bioavailability	C[C@H](N)C(=O)N1C[C@H](CCCB(O)O)[C@](N)(C(=O)O)C1 [ref. ARGi, numidargistat, reference compound]	28%	14%						
	CN(C)C[C@@H]1CC[C@@H](CCB(O)O)C[C@]1(N)C(=O)O [OATD-02]	48%		up to 6.7 fold	up to 6.9 fold	49%	47%	dying faster in a dose-dependent manner	safe and well tolerated
